# Source: BindingDB's records for doi:10.1073/pnas.90.2.408 (Synaptic Pharmaceutical, 1993)
# Biological target: T1, 5-hydroxytryptamine receptor 1F (Homo sapiens, UniProt P30939)
# T1 sequence (P30939 whole entry): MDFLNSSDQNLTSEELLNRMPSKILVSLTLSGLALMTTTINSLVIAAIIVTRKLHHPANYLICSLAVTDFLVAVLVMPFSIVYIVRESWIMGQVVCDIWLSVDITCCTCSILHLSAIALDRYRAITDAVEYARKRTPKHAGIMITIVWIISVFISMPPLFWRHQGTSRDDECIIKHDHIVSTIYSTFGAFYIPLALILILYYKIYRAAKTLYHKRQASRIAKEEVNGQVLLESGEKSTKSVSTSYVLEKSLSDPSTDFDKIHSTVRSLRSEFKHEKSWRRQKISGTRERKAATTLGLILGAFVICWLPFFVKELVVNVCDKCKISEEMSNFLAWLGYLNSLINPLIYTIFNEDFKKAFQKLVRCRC
row,Structure (SMILES),Ki
1,CN1C[C@@H](NS(=O)(=O)N(C)C)C[C@@H]2c3cccc4c3c(cn4C)C[C@H]21 [MESULERGINE],> 10000 nM
2,"Cn1cc(CCN)c2cc(O)ccc21 [5-HT,omega-N-Me]",184 nM
3,CCCN(CCC)C1CCc2cccc(O)c2C1 (configuration not stated),1770 nM
4,"O=C(c1ccc(F)cc1)C1CCN(CCn2c(=O)[nH]c3ccccc3c2=O)CC1 [3-(2-{4-[(4-fluorophenyl)carbonyl]piperidin-1-yl}ethyl)-1,2,3,4-tetrahydroquinazoline-2,4-dione]",> 10000 nM
5,CC(C)NCC(O)COc1cccc2[nH]ccc12 (configuration not stated) [LB-46],> 10000 nM
6,"O=C(CCCN1CCC2(CC1)C(=O)NCN2c1ccccc1)c1ccc(F)cc1 [8-[4-(4-fluorophenyl)-4-oxidanylidene-butyl]-1-phenyl-1,3,8-triazaspiro[4.5]decan-4-one]",> 10000 nM
7,"CSc1ccc2c(c1)C(N1CCN(C)CC1)Cc1ccccc1S2 (configuration not stated) [methanesulfonic acid;1-methyl-4-(3-methylsulfanyl-5,6-dihydrobenzo[b][1]benzothiepin-5-yl)piperazine]",652 nM
8,"COc1cc(N)c(Cl)cc1C(=O)NC1CN2CCC1CC2 (configuration not stated) [ZACOPRIDE,R]",> 10000 nM
9,CCCN(CCC)CCc1c[nH]c2ccc(C(N)=O)cc12 [NN-DIPROP-5-CT],1610 nM
10,"COc1cc(CC(C)N)c(OC)cc1I (configuration not stated) [[125I]2,5-dimethoxy-4-iodoamphetamine]",1740 nM
11,COc1ccc2[nH]cc(CCN(C)C)c2c1 [3-(2-DIMETHYLAMINOETHYL)-5-METHOXYINDOLE],37 nM
12,"COc1ccc2[nH]cc(CCN)c2c1 [tryptamine, 5-Methoxy]",1170 nM
